Results from a melting point compilation (Tetko et al.; mined from patent text by program, amines drawn as free bases though some values may be those of a salt).

melting point | Compound
130 to 131 °C | COC1(OCCc2nc(C(C)C)c(Sc3cc(Cl)cc(Cl)c3)n2C)c2ccccc2-c2ccccc21
135 to 137 °C | CC(C)Cc1ccc2ccc(=O)[nH]c2n1
157 to 158 °C | COC(=O)c1ccc(CN2CCN(c3nc(C)cs3)C2=O)cc1
73 to 77 °C | COc1ccc2nc([C@H](CC(C)C)NC(=O)OCc3ccccc3)[nH]c2c1
173 to 176 °C | CC(C)(C)NS(=O)(=O)c1ccccc1C=C1CCOC1=O
152 to 155 °C | O=S(=O)(Cl)Oc1cccc2cnccc12
148 °C | O=C1C(Cl)=C(Cl)C(=O)c2cc(Cl)ccc21
> 300 °C | O=C(O)c1ccc(-c2nc3ccccc3s2)nc1
169 to 172 °C | O=C(O)c1cc(NC(=O)C(CS)Cc2ccccc2)c[nH]1 (centres undefined)
146 to 148 °C | COC(=O)C1=C(C)NC(C)=C(C(=O)OCCCCCCOc2cc(-c3ccc(OC)cc3)[nH]n2)C1c1cccc(Cl)c1Cl (centres undefined)
74 to 78 °C | COc1ccc2c(c1)CC(=O)C2
106 to 107 °C | COC(=O)c1cc2cc(COc3cccnc3)ccc2s1
100 to 101 °C | O=[N+]([O-])c1c(CO)cccc1CO
224 to 225 °C | CNC(=O)c1cc(=O)c2ccccc2o1
130 °C | CCCNC(=O)C(C)Cc1ccc2cccc(Cc3ccc(C(=O)OC)cc3OC)c2c1 (centres undefined)
215 to 216 °C | COc1cccc2c1C(=O)c1c(O)cc(CO)cc1C2=O
231 to 234 °C | CC1CN(c2c(F)cc3c(=O)c(C(=O)O)cn(C4CC4)c3c2Cl)CC1N (centres undefined)
138 to 139 °C | CC(=O)N(CC(C)C)C1NC(=O)N(c2cccs2)C(=O)N1
256 °C | Cc1cc(-c2ccc(Cl)cc2)nc(-n2cnc(-c3ncc(S(N)(=O)=O)s3)c2)n1
91 to 93 °C | CN(C)c1ccc(CC(CS)C(=O)Nc2cccc(C(=O)O)c2)cc1 (centres undefined)
103 to 106 °C | COC(=O)C(C)(C)S(=O)(=O)N1CCC(c2ccc(Br)c(C)c2)CC1
207 to 210 °C | O=C(OCc1cc(-c2ccccc2)c(=O)n2c1-c1sccc1CN2)N1CCOCC1
242 to 243 °C | Cn1c(=O)c2c(Cl)cccc2n2cnc(C(=O)n3ccnc3)c12
266 to 268 °C | Cc1cc(C2=NN=C(C(N)=O)Cc3cc4c(cc32)OCO4)ccc1[N+](=O)[O-]
74 to 76 °C | CCOC(=O)CCCCn1c(C(=O)OCC)cc2c(Cl)cc(O)cc21
165 °C | COC(=O)c1scc(-c2ccccc2)c1-c1ccc(S(=O)(=O)COC(C)=O)c(F)c1

Second part, the compound before the results:

Compound | melting point
NC(=O)N1CCC(c2nn(-c3ccccc3)c3cc(F)ccc23)CC1 | 149 to 151 °C
COc1cccc2c1SCC(C(=O)O)C2 (centres undefined) | 138 to 144 °C
O=C(Nc1ccc(C(CC2CCCC2)C(=O)Nc2nccs2)cc1)c1ccc([N+](=O)[O-])cc1 (centres undefined) | 236 to 238 °C
C=Cc1ccc(-c2ccc(OC(C)=O)cc2)cc1 | 119 to 122 °C
Cc1ccc(-n2nc(C(C)(C)C)cc2NC(=O)NCc2ccccc2Oc2ccnc(N3CCN(C)CC3)n2)cc1 | 150 °C
CC(C)(C)c1ccc(Oc2ccc(NC(=O)c3ccccc3C(c3ccc(O)cc3)c3ccc(O)cc3)cn2)cc1 | 121 to 125 °C
NC(=O)Cn1c(-c2ccccc2)nc2cccnc21 | 226 to 227 °C
CC(C)COc1c(NCCCBr)c(=O)c1=O | 70 to 71 °C
COc1ccc(OCC(C)Oc2ccc(OC)cc2)cc1 (centres undefined) | 84 to 84.5 °C
CN1C(=O)C(NC(=O)CC23CC4CC(CC(C)(C4)C2)C3)N=C(c2ccccc2)c2ccccc21 (racemic) | 195 to 196 °C
Brc1ccc(C=Cc2ccc(Br)cc2)cc1 | 213 °C
CCCCNc1c(C(=O)OCC)cnc2[nH]ncc12 | 181 °C
CCCCCCNc1ccc(OC2CCN(C(=O)OC(C)(C)C)CC2)cc1 | 46 to 47 °C
Nc1nc2ccccc2c2c1ncn2CCCCCCNC(=O)c1ccccc1 | 146 to 155 °C
Cc1ccc2c(c1)C(NC(=O)CCCN1CCN(c3ccc(F)cc3)CC1)c1ccccc1CS2(=O)=O (centres undefined) | 163 to 165 °C
Fc1ccc(Cn2c(NC3CCN(CCn4c(=S)[nH]c5ccccc54)CC3)nc3ccccc32)cc1 | 235 °C
CC(=O)OCc1ccc(-c2ccccc2-c2nnnn2C(c2ccccc2)(c2ccccc2)c2ccccc2)cc1 | 117 to 119 °C
Cc1nc(N2CCC(NCCC(F)(F)F)C2=O)sc1C(=O)NCc1ccc(F)cc1 (centres undefined) | 142 to 143 °C
CC1=CC2Cc3[nH]c(=O)ccc3C3(C1)NCCCC23 (centres undefined) | 270 to 271 °C
CN(C)CCCOc1ccc(-c2nnc(-c3ccc(-c4ccccc4)cc3)o2)cc1 | 130 to 132 °C
CCc1ccc(C(=O)N[C@@H]2CCc3cccc(N4CCN(C)CC4)c3C2)cc1 | 177 to 178 °C
CCOC(=S)CC/C(C)=C/Cc1c(OC)c(C)c2c(c1OC(N)=O)C(=O)OC2 | 145 to 147 °C

Compound | melting point
O=C(NCCO)c1cccc(-c2cccn3nc(Nc4cccc(C(F)(F)F)c4)nc23)c1 | 215 to 216 °C
N#Cc1nn(-c2c(Cl)cc(C(F)(F)F)cc2Cl)cc1C(=O)C1CC1 | 195 to 197 °C
CN(CCc1ccccc1)C(=O)C(C)(Cc1c[nH]c2ccccc12)NC(=O)OC1C2CC3CC(C2)CC1C3 (centres undefined) | 90 to 95 °C
CNc1nc(SC)ncc1C=O | 98 to 100 °C
CC(C)(C)NC(=O)[C@@H]1C[C@H](Cl)CN1C(=O)[C@@H](O)[C@H](Cc1ccccc1)NC(=O)[C@H](CC(N)=O)NC(=O)c1cnc2ccccc2n1 | 132 to 134 °C
CCCCCCCCCCCCCc1nc(NC(=O)Nc2c(C(C)C)cccc2C(C)C)no1 | 99 to 101 °C
OC(Cn1cncn1)(c1ccc(F)cc1F)C(F)(F)F (centres undefined) | 110 to 111 °C
c1ccc(CN(Cc2ccccc2)C2CCC3(CC2)OCCO3)cc1 | > 95 °C
COC(=O)c1cccc2c1ccn2C | 194 to 195 °C
CC(C)(C)OC(=O)N[C@@H](Cc1ccccc1)C(=O)NCCC(=O)OCc1ccccc1 | 93 to 96 °C
CCCc1cc(N2CCC(NCC(O)c3ccc4ccccc4n3)CC2)nc2sc(C(N)=O)c(N)c12 (centres undefined) | 159 to 161 °C
C=CCSC1=C(O)CC(C)(C)CC1=O | 67.5 to 69.5 °C
Nc1noc2cccc(OCCBr)c12 | 105 to 107 °C
Cc1ccc(C(=O)C=Cc2ccc[nH]2)cc1 | 158 to 160 °C
CCc1nc2c(cnn2CC)c(NC2CCOCC2)c1CNC(=O)c1cccc(C(=O)NCc2ccc(Cl)c(-c3cccc(CN4CCNCC4)c3)c2)c1 | 127 to 130 °C
CCCCCCCCCCCCCCCCSCC(CNS(=O)(=O)CCCI)NC(=O)OC (centres undefined) | 79 to 81 °C
O=C(O)CCCCCCCCCCCc1ccccc1 | 47 to 48 °C
c1ccc2c(c1)-c1ccccc1C21c2ccccc2-c2ccc(-n3ccnc3-c3nccn3-c3ccc4c(c3)C3(c5ccccc5-c5ccccc53)c3ccccc3-4)cc21 | 404 to 412 °C
COC(=O)CCc1cnoc1-c1ccc([N+](=O)[O-])cc1 | 118 to 119 °C
NCCCNC(=O)c1ccc(-c2nn(-c3ccc(C(=O)O)cc3)c3ccccc23)cc1 | 285 to 288 °C
O=C1c2c(ccc(F)c2Cl)-n2cnc(-c3cccc(Cl)c3)c2[C@@H]2CCCN12 | 238 to 239 °C
